Measured values reported in patent US12371454B2, “Cyclic peptide compound having Kras inhibitory action” (priority 2019, dated 2025).
Starred links: 1 amine or outer side, 2 acyl side, 3 side chain; linkers in the order of their positions; H or OH if unused. Positions of bridges follow the written chain, without caps; N, C: chain ends. Non-standard residues stand in square brackets, D forms with d. Residues, ends and D or L forms follow the SMILES beside them. *: point of attachment. NMeAbu(3,3-F2-piperidino) = CN[C@@H](CCN1CCCC(F)(F)C1)C(=O)O; hPhe(3-Cl-4-CF3) = N[C@@H](CCc1ccc(C(F)(F)F)c(Cl)c1)C(=O)O; hPhe(3-F,4-CF3) = N[C@@H](CCc1ccc(C(F)(F)F)c(F)c1)C(=O)O; hPhe(4-CF3) = N[C@@H](CCc1ccc(C(F)(F)F)cc1)C(=O)O; NEtPhe(4-Cl) = CCN[C@@H](Cc1ccc(Cl)cc1)C(=O)O; Thiomorpholino(1,1-dioxo) = O=S1(=O)CCN(*)CC1; NMePhe(4-Cl) = CN[C@@H](Cc1ccc(Cl)cc1)C(=O)O; NMePhe(4-Me) = CN[C@@H](Cc1ccc(C)cc1)C(=O)O; hPhe(4-Cl) = N[C@@H](CCc1ccc(Cl)cc1)C(=O)O; NMedβ3hAla = C[C@H](CC(=O)[*:2])N(C)[*:1]; Phe(3-Cl) = N[C@@H](Cc1cccc(Cl)c1)C(=O)O; NMeGly(cPent) = CN[C@H](C(=O)O)C1CCCC1; Phe(3-I) = N[C@@H](Cc1cccc(I)c1)C(=O)O; Pro(4,4-F2) = O=C(O)[C@@H]1CC(F)(F)CN1; NMe3Pal = CN[C@@H](Cc1cccnc1)C(=O)O; NMeCha = CN[C@@H](CC1CCCCC1)C(=O)O; Azetidine(3,3-F2) = FC1(F)CN(*)C1; NMeChg = CN[C@H](C(=O)O)C1CCCCC1; NMeF = CN[C@@H](Cc1ccccc1)C(=O)O; NMeI = CC[C@H](C)[C@H](NC)C(=O)O; N(CH2CH2)2CF2 = FC1(F)CCN(*)CC1; NMeβAla = CN(CCC(=O)[*:2])[*:1]; NMeD = CN[C@@H](CC(=O)O)C(=O)O; CH2CONHtBu = CC(C)(C)NC(=O)C*; NMeL = CN[C@@H](CC(C)C)C(=O)O; NMeV = CN[C@H](C(=O)O)C(C)C; d(β3hA) = C[C@@H](N)CC(=O)O; Morpholide = C1CN(*)CCO1; NMeA = CN[C@@H](C)C(=O)O; NMeAib = CNC(C)(C)C(=O)O; Nle = CCCC[C@H](N)C(=O)O; Piperidide = C1CCN(*)CC1; Pyrrolidide = C1CCN(*)C1; dNMeA = CN[C@H](C)C(=O)O; Ac5c = NC1(C(=O)O)CCCC1; Aze = O=C(O)[C@@H]1CCN1; Thp = NC1(C(=O)O)CCOCC1; Abu = CC[C@H](N)C(=O)O; Sar = CNCC(=O)O

These compounds were tested against T1, Kras and SOS1 (biotin-tagged human Kras loaded with GDP, His-tagged human SOS1) (Homo sapiens, UniProt P01116, G12D) (assay: Protein-protein interaction inhibition between Kras and SOS1 (KrasGl2D-SOS PPI) using AlphaScreen). Conditions: AlphaScreen; biotin-tagged human Kras loaded with GDP, His-tagged human SOS1; read-out: KRAS G12D-SOS PPI IC50.
T1 construct: made in house; host or cells: E. coli (stated for Kras only)
Assay type: binding
Procedure, shortened: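 Donor beads (nickel) hold His-SOS1; acceptor beads (streptavidin) hold biotin-Kras bound to GDP. Signal measured at 520-620 nm following 680 nm excitation.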

T1 sequence (P01116 1-188 isoform P01116-2 G12D): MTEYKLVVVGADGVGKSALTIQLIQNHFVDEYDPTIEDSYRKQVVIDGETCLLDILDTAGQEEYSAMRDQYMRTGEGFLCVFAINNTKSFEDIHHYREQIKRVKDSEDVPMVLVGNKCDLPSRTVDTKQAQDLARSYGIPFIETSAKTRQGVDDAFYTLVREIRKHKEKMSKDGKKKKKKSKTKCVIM

SMILES	IC50
CC[C@H](C)[C@@H]1NC(=O)[C@H](CC(C)C)N(C)C(=O)C[C@@H](C(=O)N2CCS(=O)(=O)CC2)NC(=O)[C@H]([C@@H](C)CC)N(C)C(=O)C2(CCCC2)NC(=O)[C@@H]2CCCN2C(=O)[C@H](CCc2ccc(C(F)(F)F)c(Cl)c2)NC(=O)CN(C)C(=O)[C@H](CC2CCCCC2)N(C)C(=O)CN(C)C(=O)CN(C)C1=O [Compound 1279] ([NMeL]I[Sar][Sar][NMeCha][Sar][hPhe(3-Cl-4-CF3)]P[Ac5c][NMeI]D-{Thiomorpholino(1,1-dioxo)}; lactam N-11)	16 nM
CC[C@H](C)[C@@H]1NC(=O)[C@H](C)N(C)C(=O)C[C@@H](C(=O)N2CCCCC2)N(C)C(=O)[C@H](C2CCCCC2)N(C)C(=O)C2(CCCC2)NC(=O)[C@@H]2CCCN2C(=O)[C@H](COc2ccc(Cl)cc2)NC(=O)CN(C)C(=O)[C@H](CC2CCCCC2)N(C)C(=O)CN(C)C(=O)CN(C)C1=O [Compound 2042, (3S,9S,18S,21S,25S,28S,34S)-3-[(4-chlorophenoxy)methyl]-28-cyclohexyl-9-(cyclohexylmethyl)-7,10,13,16,21,22,26,29-octamethyl-18-[(1S)-1-methylpropyl]-25-(piperidine-1-carbonyl)spiro[1,4,7,10,13,16,19,22,26,29,32-undecazabicyclo[32.3.0]heptatriacontane-31,1′-cyclopentane]-2,5,8,11,14,17,20,23,27,30,33-undecone]	70 nM
CC[C@H](C)[C@@H]1NC(=O)[C@H](CC(C)C)N(C)C(=O)C[C@@H](C)N(C)C(=O)[C@H](CC(C)C)N(C)C(=O)C2(CCOCC2)NC(=O)[C@@H]2CCCN2C(=O)[C@H](CCc2ccc(Cl)cc2)NC(=O)CN(C)C(=O)[C@H](CC2CCCCC2)N(C)C(=O)CN(C)C(=O)CN(C)C1=O [Compound 802] (cyclo(I[Sar][Sar][NMeCha][Sar][hPhe(4-Cl)]P[Thp][NMeL][NMedβ3hAla][NMeL]))	390 nM
CCCC[C@@H]1NC(=O)[C@H](Cc2cccc(I)c2)NC(=O)CN(C)C(=O)[C@H](Cc2ccc(Cl)cc2)N(CC)C(=O)CN(C)C(=O)CN(C)C(=O)[C@H]([C@@H](C)CC)NC(=O)[C@H](CC(C)C)N(C)C(=O)C[C@@H](C(=O)N2CCCCC2)N(C)C(=O)[C@H](CC(C)C)NC(=O)C(C)(C)N(C)C1=O [Compound 423] ([NMeL]I[Sar][Sar][NEtPhe(4-Cl)][Sar][Phe(3-I)][Nle][NMeAib]L[NMeD]-Piperidide; lactam N-11)	64 nM
CC[C@H](C)[C@@H]1NC(=O)[C@H](CC(C)C)N(C)C(=O)CCN(C)C(=O)[C@H](C(C)C)N(C)C(=O)C2(CCCC2)NC(=O)[C@@H]2CCCN2C(=O)[C@H](CCc2ccc(C(F)(F)F)c(F)c2)NC(=O)CN(C)C(=O)[C@H](CC2CCCCC2)N(C)C(=O)CN(C)C(=O)CN(C)C1=O [Compound 879] (cyclo([Ac5c][NMeV][NMeβAla][NMeL]I[Sar][Sar][NMeCha][Sar][hPhe(3-F,4-CF3)]P))	36 nM
CC[C@H](C)[C@@H]1NC(=O)[C@H](CC(C)C)N(C)C(=O)C[C@@H](C(=O)N2CCOCC2)N(C)C(=O)[C@H](C2CCCCC2)N(C)C(=O)C2(CCCC2)NC(=O)[C@@H]2CC(F)(F)CN2C(=O)[C@H](CCc2ccc(C(F)(F)F)c(Cl)c2)NC(=O)CN(C)C(=O)[C@H](CC2CCCCC2)N(C)C(=O)CN(C)C(=O)CN(C)C1=O [Compound 1194] ([NMeL]I[Sar][Sar][NMeCha][Sar][hPhe(3-Cl-4-CF3)][Pro(4,4-F2)][Ac5c][NMeChg][NMeD]-Morpholide; lactam N-11)	0.52 nM
CCCC[C@@H]1NC(=O)[C@H](Cc2cccc(Cl)c2)NC(=O)CN(C)C(=O)[C@H](Cc2ccc(Cl)cc2)N(C)C(=O)CN(C)C(=O)CN(C)C(=O)[C@H]([C@@H](C)CC)NC(=O)[C@H](CC(C)C)N(C)C(=O)C[C@@H](C(=O)N2CCCC2)N(C)C(=O)[C@H](CC(C)C)NC(=O)C(C)(C)N(C)C1=O [Compound 1407] ([NMeL]I[Sar][Sar][NMePhe(4-Cl)][Sar][Phe(3-Cl)][Nle][NMeAib]L[NMeD]-Pyrrolidide; lactam N-11)	170 nM
CC[C@@H]1NC(=O)[C@H](CC(=O)N2CCC(F)(F)CC2)N(C)C(=O)[C@H](CCc2ccc(C(F)(F)F)c(Cl)c2)NC(=O)CN(C)C(=O)[C@H](CC2CCCCC2)N(C)C(=O)CN(C)C(=O)CN(C)C(=O)[C@H]([C@@H](C)CC)NC(=O)[C@H](CC(C)C)N(C)C(=O)C[C@@H](C(=O)N2CCCCC2)N(C)C(=O)[C@H](C(C)C)N(C)C1=O [Compound 240] ([NMeL]I[Sar][Sar][NMeCha][Sar][hPhe(3-Cl-4-CF3)][NMeD](N(CH2CH2)2CF2)[Abu][NMeV][NMeD]-Piperidide; lactam N-11)	140 nM
CC[C@H](C)[C@@H]1NC(=O)[C@H](CC(C)C)N(C)C(=O)C[C@@H](C(=O)N(C)C)N(C)C(=O)[C@H](C2CCCC2)N(C)C(=O)[C@H](C)NC(=O)[C@H](CCN2CCCC(F)(F)C2)N(C)C(=O)[C@H](CCc2ccc(C(F)(F)F)c(Cl)c2)NC(=O)CN(C)C(=O)[C@H](CC2CCCCC2)N(C)C(=O)[C@@H]2CCN2C(=O)[C@H](C)N(C)C1=O [Compound 1081] ([NMeL]I[NMeA][Aze][NMeCha][Sar][hPhe(3-Cl-4-CF3)][NMeAbu(3,3-F2-piperidino)]A[NMeGly(cPent)][NMeD]-NMe2; lactam N-11)	25 nM
CC[C@H](C)[C@@H]1NC(=O)[C@H](C)N(C)C(=O)C[C@@H](C(=O)N2CCCCC2)N(C)C(=O)[C@H](C(C)C)N(C)C(=O)[C@H](COC)NC(=O)[C@H](CC(=O)N2CC(F)(F)C2)N(C)C(=O)[C@H](CCc2ccc(C(F)(F)F)c(Cl)c2)NC(=O)CN(C)C(=O)[C@H](CC2CCCCC2)N(C)C(=O)CN(C)C(=O)CN(C)C1=O [Compound 793] ([NMeA]I[Sar][Sar][NMeCha][Sar][hPhe(3-Cl-4-CF3)][NMeD](Azetidine(3,3-F2))S(Me)[NMeV][NMeD]-Piperidide; lactam N-11)	24 nM
CC[C@H](C)[C@@H]1NC(=O)[C@H](C)N(C)C(=O)C[C@@H](C(=O)N2CCCC2)N(C)C(=O)[C@H](C(C)C)N(C)C(=O)C2(CCCC2)NC(=O)[C@@H]2CCCN2C(=O)[C@H](CCc2ccc(C(F)(F)F)c(Cl)c2)NC(=O)[C@@H](C)N(C)C(=O)[C@H](CC2CCCCC2)N(C)C(=O)[C@@H]2CCCN2C(=O)CN(C)C1=O [Compound 1715] ([NMeA]I[Sar]P[NMeCha][dNMeA][hPhe(3-Cl-4-CF3)]P[Ac5c][NMeV][NMeD]-Pyrrolidide; lactam N-11)	2.4 nM
CC[C@H](C)[C@@H]1NC(=O)[C@H](CC(C)C)N(C)C(=O)C[C@@H](C)NC(=O)[C@H](CC(C)C)N(C)C(=O)C2(CCCC2)NC(=O)[C@@H]2CCCN2C(=O)[C@H](CCc2ccc(C(F)(F)F)c(Cl)c2)NC(=O)CN(C)C(=O)[C@H](CC2CCCCC2)N(C)C(=O)CN(C)C(=O)CN(C)C1=O [Compound 1503] (cyclo([Ac5c][NMeL][d(β3hA)][NMeL]I[Sar][Sar][NMeCha][Sar][hPhe(3-Cl-4-CF3)]P))	16 nM
CC[C@H](C)[C@@H]1NC(=O)[C@H](C)N(C)C(=O)C[C@@H](C(=O)N2CCCC2)N(C)C(=O)[C@H](C2CCCCC2)N(C)C(=O)C2(CCCC2)NC(=O)[C@H](Cc2cccnc2)N(C)C(=O)[C@H](CCc2ccc(C(F)(F)F)c(Cl)c2)NC(=O)CN(C)C(=O)[C@H](CC2CCCCC2)N(C)C(=O)CN(C)C(=O)CN(C)C1=O [Compound 1834] ([NMeA]I[Sar][Sar][NMeCha][Sar][hPhe(3-Cl-4-CF3)][NMe3Pal][Ac5c][NMeChg][NMeD]-Pyrrolidide; lactam N-11)	0.81 nM
CC[C@H](C)[C@@H]1NC(=O)[C@H](C)N(C)C(=O)C[C@@H](C(=O)N2CCCC2)NC(=O)[C@H](CC(C)C)N(C)C(=O)[C@H](Cc2ccccc2)N(C)C(=O)[C@H](COCC(=O)NC(C)(C)C)NC(=O)[C@H](CCc2ccc(C(F)(F)F)cc2)NC(=O)CN(C)C(=O)[C@H](Cc2ccc(Cl)cc2)N(C)C(=O)CN(C)C(=O)CN(C)C1=O [Compound 233] ([NMeA]I[Sar][Sar][NMePhe(4-Cl)][Sar][hPhe(4-CF3)]S(CH2CONHtBu)[NMeF][NMeL]D-Pyrrolidide; lactam N-11)	66 nM
CC[C@H](C)[C@@H]1NC(=O)[C@H](CC(C)C)N(C)C(=O)C[C@@H](C)NC(=O)[C@H](C2CCCC2)N(C)C(=O)C2(CCCC2)NC(=O)[C@@H]2CCCN2C(=O)[C@H](CCc2ccc(C(F)(F)F)c(Cl)c2)NC(=O)[C@@H](C)N(C)C(=O)[C@H](Cc2ccc(C)cc2)N(C)C(=O)CN(C)C(=O)CN(C)C1=O [Compound 1521] (cyclo([Ac5c][NMeGly(cPent)][d(β3hA)][NMeL]I[Sar][Sar][NMePhe(4-Me)][dNMeA][hPhe(3-Cl-4-CF3)]P))	110 nM
CC[C@H](C)[C@@H]1NC(=O)[C@H](CC(C)C)N(C)C(=O)C[C@@H](C(=O)N2CCCC2)N(C)C(=O)[C@H](C2CCCC2)N(C)C(=O)C2(CCCC2)NC(=O)[C@@H]2CCCN2C(=O)[C@H](CCc2ccc(C(F)(F)F)c(Cl)c2)NC(=O)CN(C)C(=O)[C@H](CC2CCCCC2)N(C)C(=O)CN(C)C(=O)CN(C)C1=O [Compound 1818] ([NMeL]I[Sar][Sar][NMeCha][Sar][hPhe(3-Cl-4-CF3)]P[Ac5c][NMeGly(cPent)][NMeD]-Pyrrolidide; lactam N-11)	0.4 nM
CC[C@H](C)[C@@H]1NC(=O)[C@H](CC(C)C)N(C)C(=O)C[C@@H](C(=O)N2CCCCC2)N(C)C(=O)[C@H]([C@@H](C)CC)N(C)C(=O)C2(CCCC2)NC(=O)[C@@H]2CCCN2C(=O)[C@H](CCc2ccc(C(F)(F)F)c(Cl)c2)NC(=O)CN(C)C(=O)[C@H](Cc2ccc(C)cc2)N(C)C(=O)CN(C)C(=O)CN(C)C1=O [Compound 1649] ([NMeL]I[Sar][Sar][NMePhe(4-Me)][Sar][hPhe(3-Cl-4-CF3)]P[Ac5c][NMeI][NMeD]-Piperidide; lactam N-11)	0.42 nM
